Measured values as given in US8691949B2, “Peptide having anti-diabetic activity and use thereof” (MG Pharma Inc., priority 2008, dated 2014).
Residues, ends and D or L forms follow the SMILES beside them.

Assay: in vivo
Details: mouse, po, 2 g/kg body weight

## CC(C)C[C@H](NC(=O)[C@H](CCC(=O)O)NC(=O)[C@H](CO)NC(=O)[C@@H](N)CC(C)C)C(=O)O [LSEL, Leu-Ser-Glu-Leu] (H-LSEL-OH)
  LD50: > 2000 mg/kg
